Series [1] can be described thus: Cellular toxicity in the HIV cell-line MT-4. The conditions noted are these: human, MT-4 cells, read-out: CC50 (μM) (MT4). In kind it is cell-based. From the text: (§1) Also the HIV activity is given (EC50 HIV (μM)) and the cellular toxicity in the HIV cell-line (CC50 (μM) (MT-4)).
A short description of series [2]: Cytotoxicity in Huh-7 cells. The series is classed as cell-based. The conditions noted are these: human. An excerpt: The in vitro antiviral activity against HCV of the compounds of formula I can be tested in a cellular HCV replicon system based on Lohmann et al. (1999) Science 285:110-113, with the further modifications described by Krieger et al. (2001) Journal of Virology 75: 4614-4624 (incorporated herein by reference), which is further exemplified in the examples section. This model, while not a complete infection model for HCV, is widely accepted as the most robust and efficient model of autonomous HCV RNA replication currently available. It will be appreciated that it is important to distinguish between compounds that specifically interfere with HCV functions from those that exert cytotoxic or cytostatic effects in the HCV replicon model, and as a consequence cause a decrease in HCV RNA or linked reporter enzyme concentration. Assays are known in the field for the evaluation of cellular cytotoxicity based for example on the activity of mitochondrial enzymes using fluorogenic redox dyes such as resazurin. Furthermore, cellular counter screens exist for the evaluation of non-selective inhibition of linked reporter gene activity, such as firefly luciferase. Appropriate cell types can be equipped by stable transfection with a luciferase reporter gene whose expression is dependent on a constitutively active gene promoter, and such cells can be used as a counter-screen to eliminate non-selective inhibitors. […]

For another series, the system named is HCV type 1b replicon. Description: HCV replicon assay (Huh-Luc cells, luciferase readout). The series is classed as cell-based. The conditions noted are these: Hepatitis C virus, 72 h, read-out: EC50 (μM) (HCV). From the text: The in vitro antiviral activity against HCV of the compounds of formula I can be tested in a cellular HCV replicon system based on Lohmann et al. (1999) Science 285:110-113, with the further modifications described by Krieger et al. (2001) Journal of Virology 75: 4614-4624 (incorporated herein by reference), which is further exemplified in the examples section. This model, while not a complete infection model for HCV, is widely accepted as the most robust and efficient model of autonomous HCV RNA replication currently available. It will be appreciated that it is important to distinguish between compounds that specifically interfere with HCV functions from those that exert cytotoxic or cytostatic effects in the HCV replicon model, and as a consequence cause a decrease in HCV RNA or linked reporter enzyme concentration. Assays are known in the field for the evaluation of cellular cytotoxicity based for example on the activity of mitochondrial enzymes using fluorogenic redox dyes such as resazurin. Furthermore, cellular counter screens exist for the evaluation of non-selective inhibition of linked reporter gene activity, such as firefly luciferase. Appropriate cell types can be equipped by stable transfection with a luciferase reporter gene whose expression is dependent on a constitutively active gene promoter, and such cells can be used as a counter-screen to eliminate non-selective inhibitors.
The compounds of formula I were examined for activity in the inhibition of HCV-RNA replication in a cellular assay. […] The cellular assay was based on a bicistronic expression construct, as described by Lohmann et al. (1999) Science vol. 285 pp. 110-113 with modifications described by Krieger et al. (2001) Journal of Virology 75: 4614-4624, in a multi-target screening strategy.
In essence, the method was as follows. The assay utilized the stably transfected cell line Huh-7 luc/neo (hereafter referred to as Huh-Luc). This cell line harbors an RNA encoding a bicistronic expression construct comprising the wild type NS3-NS5B regions of HCV type 1b translated from an internal ribosome entry site (IRES) from encephalomyocarditis virus (EMCV), preceded by a reporter portion (FfL-luciferase), and a selectable marker portion (neo^R, neomycine phosphotransferase). The construct is bordered by 5′ and 3′ NTRs (non-translated regions) from HCV genotype 1b. Continued culture of the replicon cells in the presence of G418 (neo^R) is dependent on the replication of the HCV-RNA. The stably transfected replicon cells that express HCV-RNA, which replicates autonomously and to high levels, encoding inter alia luciferase, were used for screening the antiviral compounds.
The replicon cells were plated in 384-well plates in the presence of the test and control compounds which were added in various concentrations. Following an incubation of three days, HCV replication was measured by assaying luciferase activity (using standard luciferase assay substrates and reagents and a Perkin Elmer ViewLux™ ultraHTS microplate imager). Replicon cells in the control cultures have high luciferase expression in the absence of any inhibitor. The inhibitory activity of the compound on luciferase activity was monitored on the Huh-Luc cells, enabling a dose-response curve for each test compound. EC50 values were then calculated, which value represents the amount of the compound required to decrease the level of detected luciferase activity by 50%, or more specifically, the ability of the genetically linked HCV replicon RNA to replicate.
In general terms: In antiviral work, replicon cells carry a viral genome segment that copies itself.

The test system of series [3] is HIV. Description: HIV activity. In kind it is cell-based. The following applies: Human immunodeficiency virus 1, read-out: EC50 (μM) (HIV).
Source text: as §1

Series [4] deals with HIV. The following applies: described in Org. Biomol. Chem., 2003, 3514-3526; cited from earlier work.
Where [5] appears, read: Huh-Luc replicon cells, HCV type 1b, three days incubation, luciferase activity.

Read-outs that look alike come from different tables or passages of the source. A value given as a limit tells only on which side of the number the result lay.

Here are results for 15 compounds from US8933052B2, “Uracyl spirooxetane nucleosides” (Janssen Products, LP, priority 2009, dated 2015).

One may read the CC50 as the concentration at which the toxic effect on the cells reaches its halfway point. Broadly, the EC50 is the concentration giving half of the maximal effect.

With `O=C(OCc1ccccc1)[C@@H](NP(=O)(OC[C@H]1O[C@@H](n2ccc(=O)[nH]c2=O)[C@@]2(CCO2)[C@@H]1O)Oc1ccccc1)c1ccccc1` (stereo partly drawn) [Compound 12h], the CC50 in series [1] was > 98 µM; in series [2] it was > 88 µM. For the same compound, the EC50 with HCV type 1b replicon is 79.6 µM; in the series with HIV [3] it was > 98 µM.

In the case of `Cc1cn([C@@H]2O[C@H](CO)[C@@H](O)[C@]23CCO3)c(=O)[nH]c1=O` [1-(2-O,2-C-ethano-β-D-ribofuranosyl)thymine], in the series on HIV [4], the “activity against HIV” value is “no activity”.

On to `C[C@H](NP(=O)(OC[C@H]1O[C@@H](n2ccc(=O)[nH]c2=O)[C@@]2(CCO2)[C@@H]1O)Oc1cccc2ccccc12)C(=O)OCc1ccccc1` (stereo partly drawn) [Compound 12k], for which the 50% cytotoxic concentration (CC50) in series [1] and in series [2] was > 98 µM in each case. In addition, the half-maximal effective concentration (EC50) with HCV type 1b replicon (setting [5]) is 2 µM; in the series with HIV [3] it was > 76.9 µM.

As to `CC[C@H](NP(=O)(OC[C@H]1O[C@@H](n2ccc(=O)[nH]c2=O)[C@@]2(CCO2)[C@@H]1O)Oc1ccccc1)C(=O)OCc1ccccc1` (stereo partly drawn) [Compound 12a], the CC50 in series [1] and in series [2] was > 98 µM in each case. Also, the EC50 in the series on HCV type 1b replicon (setting [5]) was 3.4 µM; in the series on HIV [3], > 98 µM.

In the case of `C[C@H](NP(=O)(OC[C@H]1O[C@@H](n2ccc(=O)[nH]c2=O)[C@@]2(CCO2)[C@@H]1O)Oc1ccccc1)C(=O)OCC(C)(C)C` (stereo partly drawn) [Compound 12c], the CC50 in series [1] and in series [2] was > 98 µM each time. Moreover, the EC50 with HCV type 1b replicon (setting [5]) is 5.6 µM; in the series with HIV [3], > 98 µM.

As for `CC(C)OC(=O)[C@H](C)NP(=O)(OC[C@H]1O[C@@H](n2ccc(=O)[nH]c2=O)[C@@]2(CCO2)[C@@H]1O)Oc1ccccc1` (stereo partly drawn) [Compound 12g], the CC50 in series [1] and in series [2] was > 98 µM in each case. Further, the results for the concentration for a half-maximal effect (EC50) in the series on HCV type 1b replicon (setting [5]) and with HIV [3] were 17.8 µM and > 98 µM, respectively.

As to `CC(C)COC(=O)[C@H](C)NP(=O)(OC[C@H]1O[C@@H](n2ccc(=O)[nH]c2=O)[C@@]2(CCO2)[C@@H]1O)Oc1ccccc1` (stereo partly drawn) [Compound 12l], the half-maximal cytotoxic concentration (CC50) in series [1] and in series [2] was > 98 µM in each case. In addition, the EC50 in the series on HCV type 1b replicon (setting [5]) is 0.44 µM; in the series on HIV [3], > 98 µM.

As for `CC[C@H](NP(=O)(OC[C@H]1O[C@@H](n2ccc(=O)[nH]c2=O)[C@@]2(CCO2)[C@@H]1O)Oc1ccccc1)C(=O)OC(C)C` (stereo partly drawn) [Compound 12i], the CC50 in series [1] and in series [2] was > 98 µM each time. Further, the EC50 in the series with HCV type 1b replicon (setting [5]) was > 96 µM; with HIV [3], > 98 µM.

As for `CCCCOC(=O)[C@H](C)NP(=O)(OC[C@H]1O[C@@H](n2ccc(=O)[nH]c2=O)[C@@]2(CCO2)[C@@H]1O)Oc1ccccc1` (stereo partly drawn) [Compound 12d], the CC50 in series [1] and in series [2] was > 98 µM in each case. In addition, the EC50 was 5.5 µM in the series with HCV type 1b replicon (setting [5]) and > 98 µM with HIV [3].

On to `COC(=O)C(C)(C)NP(=O)(OC[C@H]1O[C@@H](n2ccc(=O)[nH]c2=O)[C@@]2(CCO2)[C@@H]1O)Oc1ccccc1` (stereo partly drawn) [Compound 12e, methyl 2-[[[(4R,5R,7R,8R)-5-(2,4-dioxo-3,4-dihydropyrimidin-1(2H)-yl)-8-hydroxy-1,6-dioxaspiro[3.4]octan-7-yl]methoxy](phenoxy)phosphorylamino]-2-methylpropanoate], for which the cytotoxic concentration (CC50) in series [1] and in series [2] was > 98 µM in each case. In addition, the values for the EC50 in the series with HCV type 1b replicon (setting [5]) and with HIV [3] were 23.4 µM and > 98 µM, respectively.

Consider `O=c1ccn([C@@H]2O[C@H](CO)[C@@H](O)[C@]23CCO3)c(=O)[nH]1` [1-(2-O,2-C-ethano-β-D-ribofuranosyl)uracil], for which the “activity against HIV” value in the series on HIV [4] is reported as “no activity”.

In the case of `O=C(CNP(=O)(OC[C@H]1O[C@@H](n2ccc(=O)[nH]c2=O)[C@@]2(CCO2)[C@@H]1O)Oc1ccc(Cl)cc1)OCc1ccccc1` (stereo partly drawn) [Compound 12m], the CC50 in series [1] and in series [2] was > 98 µM each time. Moreover, the EC50 in the series on HCV type 1b replicon (setting [5]) was 7.17 µM; in the series with HIV [3], > 98 µM.

With `Cc1ccc(C(C)C)c(OP(=O)(N[C@@H](C)C(=O)OCc2ccccc2)OC[C@H]2O[C@@H](n3ccc(=O)[nH]c3=O)[C@@]3(CCO3)[C@@H]2O)c1` (stereo partly drawn) [Compound 12f], the CC50 was found to be 1.3 µM in series [1] and 18.7 µM in series [2]. In addition, the EC50 in the series on HCV type 1b replicon (setting [5]) was 8.7 µM; in the series with HIV [3], > 98 µM.

On to `C[C@H](NP(=O)(OC[C@H]1O[C@@H](n2ccc(=O)[nH]c2=O)[C@@]2(CCO2)[C@@H]1O)Oc1ccc(Cl)cc1)C(=O)OCc1ccccc1` (stereo partly drawn) [Compound 12j], for which the CC50 in series [1] and in series [2] was > 98 µM throughout. The EC50 in the series with HCV type 1b replicon (setting [5]) was 0.7 µM; in the series with HIV [3] it was > 98 µM.

In the case of `C[C@H](NP(=O)(OC[C@H]1O[C@@H](n2ccc(=O)[nH]c2=O)[C@@]2(CCO2)[C@@H]1O)Oc1ccccc1)C(=O)OCc1ccccc1` (stereo partly drawn) [Compound 12b], the CC50 in series [1] and in series [2] was > 98 µM throughout. The EC50 in the series with HCV type 1b replicon (setting [5]) is 3.7 µM; in the series on HIV [3], > 98 µM.
